The text below walks through data of US10947285B2, “Compounds, compositions and uses thereof for improvement of bone disorders” (Amolyt Pharma, priority 2017, dated 2021).

Residues, ends and D or L forms follow the SMILES beside them. No end group written: not given here. *: point of attachment. Stearoyl = CCCCCCCCCCCCCCCCCC(=O)* Some results are limits rather than exact numbers.

Data set [1] relates to ovariectomized (OVX) rats. As to the kind of experiment: Bone biomechanical properties in ovariectomized rat (lumbar vertebrae compression, femoral neck cantilever bending). It is filed as in vivo, Sprague-Dawley rats. To be noted: 3.2 mg/kg BID s.c., 6 weeks, vs OVX vehicle. The procedure: (§1) Effects on bone of three doses of HBD1 (3-11) with stearic acid at the N-terminus (C18:0) analog were tested in vivo in ovariectomized (OVX) rats, a recognized model for human osteoporosis, in particular postmenopausal osteoporosis. Each group included ten female Sprague-Dawley rats that were four months of age at the beginning of the in-life phase of the study. Treatment started six weeks after OVX surgery and lasted for six additional weeks. Groups were randomized before surgery according to body weight and tibial metaphysis Bone Mineral Density (BMD) as measured by peripheral quantitative computed tomography (pQCT) from Norland Stratec XCT Research SA equipment (Norland Stratec Medizintechnik, Birkenfeld, Germany).
(§2) The peptide was reconstituted in saline solution (0.9% NaCl) and administered subcutaneously twice a day at the doses of 0.8 mg/kg (low), 1.6 mg/kg (med) or 3.2 mg/kg (high) in a volume of 1 mL/kg. The control group was administered twice a day with saline by s.c. administration. Rats were weighed once a week and the volume of dosing solution administered was adjusted accordingly.
Bone biomechanical properties were determined by compression test using Instron 3343 biomechanical testing system (Instron, Norwood, Mass., USA). […]

The nature of data set [2]: Pharmacokinetic in Göttingen minipigs after intravenous and subcutaneous injection. It is filed as in vivo. Conditions: 0.5 μmol/kg. The procedure: The peptide was reconstituted in saline (0.9% NaCl). Three Göttingen minipigs (approximately 8-10 months of age) were used per group. Intravenous doses were administered into an ear vein at the dose of 0.5 μmol net peptide/kg. Subcutaneous doses were administered into the right flank of each animal, also at the dose of 0.5 μmol net peptide/kg. Following dosing, serial whole blood samples (ca. 0.25 mL) were collected from a jugular vein into K2EDTA treated containers. Following each blood sample collection, samples were placed into a cooling block at 4° C. Samples were collected prior to dosing then at 5 and 30 minutes then 1, 2, 4, 8, 25, 48, 72 and 96 hours post dose for intravenous injection and at 15 and 30 minutes then 1, 2, 4, 8, 25, 48, 72 and 96 hours post dose for subcutaneous injection.
Blood samples were centrifuged at 10000×g for 2 minutes at 4° C. and resultant plasma aspirated off into clean fully, labelled tubes. Plasma samples were snap frozen following aspiration then stored at −80° C. Peptide extraction and analysis were performed as described in Example 9. The limit of quantification of this method is 0.0015 nmol/mL. All values below this limit of quantification are considered as zero.

Data set [3] has as its system ovariectomized (OVX) rats. The data set is described as follows: Bone formation in ovariectomized rat, μCT of proximal tibia. To be noted: 6 weeks. It is filed as in vivo, Sprague-Dawley rats. The procedure: as §1, §2
High-resolution micro-computed tomography (μCT) measurements using Sky Scan 1072 or 1172 High Resolution Scanner (Bruker microCT, Kontich, Belgium) were performed ex vivo in right proximal tibia at the end of the treatment period for measuring bone volume, bone cross-sectional dimensions and bone microarchitecture. FIGS. 5A, 5B and 5C show the percent increase from OVX animals HBD1 (3-11) with stearic acid at the N-terminus (C18:0) groups for following selected parameters: Bone Volume Fraction (BV/TV; %), Trabecular number (Tb.N; mm^−1) and Connectivity Density (Conn.D; mm^−3).

Data set [4] in a line: Pharmacokinetic of HBD1 fragments in male Sprague Dawley rats after intravenous and subcutaneous injection. It is filed as in vivo. To be noted: 1 μmol net peptide/kg; for quantifiable exposure after administration by either dose route: iv and sc. The procedure: The peptides were reconstituted in saline (0.9% NaCl). Three male Sprague Dawley rats were used per group. Intravenous doses were administered into a lateral tail vein at the dose of 1 μmol net peptide/kg. Subcutaneous doses were administered into the right flank of each animal, also at the dose of 1 μmol net peptide/kg. Following dosing, serial whole blood samples (ca. 0.25 mL) were collected from a lateral tail vein into K2EDTA treated containers. Following each blood sample collection, samples were placed into a cooling block at 4° C. Samples were collected prior to dosing then at 2, 5, 15 and 30 minutes then 1, 2, 4, 6 and 8 and 24 hours post dose for intravenous injection and at 15 and 30 minutes then 1, 2, 4, 6, 8 and 24 hours post dose for subcutaneous injection.
Blood samples were centrifuged at 10000×g for 2 minutes at 4° C. and resultant plasma aspirated off into clean fully, labelled tubes. Plasma samples were snap frozen following aspiration then stored at −80° C. Peptides were extracted and analyzed as described in Example 9. The limits of quantification of these methods were 0.001 nmol/mL for cyclic HBD1 (3-11) and HBD1 (3-11) and 0.003 nmol/mL for HBD1 (1-13). All values below these limits of quantification were considered as zero.

Data set [5] in a line: Stability of HBD1 fragments in human plasma. Conditions: 24 and 48 hours incubation at 37° C. Format: in vitro ADME. The procedure:
The peptides were spiked at 1 μg/mL (peptide backbone) into pre-warmed human K2EDTA plasma (at 37° C.) and incubated for up to 48 hours. Aliquots of plasma were extracted at specific time points (0, 24 and 48 hours post spike). Extraction was performed with acetonitrile:water (75:25, v/v) for HBD1 (1-13), HBD1 (1-13) with palmitic acid at the N-terminus (C16:0), HBD1 (3-11) with palmitic acid at the N-terminus (C16:0)) and HBD1 (3-11) with stearic acid at the N-terminus (C18:0) or with acetonitrile:water:formic acid (75:25:0.1, v/v/v) for HBD1 (3-11) and cyclic HBD1 (3-11). The peptides were analyzed using developed LC (C18 reverse phase column)—positive ion electrospray MS/MS methods specific to each peptide. The peak area at each time point was expressed as a percentage of the value obtained for the t=0 minutes time point.

[6] abbreviates: OVX rats, s.c. twice a day 0.8, 1.6 or 3.2 mg/kg, vs OVX vehicle, dose-dependent.

As to `CCCCCCCCCCCCCCCCCC(=O)N[C@@H](Cc1c[nH]cn1)C(=O)N[C@@H](CC(C)C)C(=O)NCC(=O)N[C@@H](CC(C)C)C(=O)N[C@@H](CCC(=O)O)C(=O)N[C@@H](CCC(=O)O)C(=O)N1CCC[C@H]1C(=O)N[C@@H](CCCCN)C(=O)N[C@@H](CCCCN)C(=O)O` [SEQ ID NO: 73, C18:0-HLGLEEPKK] (Stearoyl-HLGLEEPKK-OH; C-terminus assumed), in data set [1], the “bone strength (biomechanical properties of lumbar vertebrae and femoral neck)” value was “increased bone strength”. Also, in data set [2], the “duration of exposure after subcutaneous administration” value is recorded as “up to 25 hours”. Moreover, the “effect on bone in ovariectomized rat” value in data set [3] (OVX Sprague-Dawley rats, s.c. twice a day, 0.8, 1.6 or 3.2 mg/kg) is on record as “has anabolic effect on bone”. In data set [3] (setting [6]), the “connectivity density (Conn.D) at tibial metaphysis” value is listed as “increased”, the “percent bone volume fraction (BV/TV) at tibial metaphysis” value is listed as “increased” and the “trabecular number (Tb.N) at tibial metaphysis” value is reported as “increased”.

With `CC(C)C[C@@H]1NC(=O)CNC(=O)[C@H](CC(C)C)NC(=O)[C@H](Cc2c[nH]cn2)NC(=O)[C@H](CCCCN)NC(=O)[C@H](CCCCN)NC(=O)[C@@H]2CCCN2C(=O)[C@H](CCC(=O)O)NC(=O)[C@H](CCC(=O)O)NC1=O` [SEQ ID NO: 77, Cyclic (HLGLEEPKK)] (cyclo(EEPKKHLGL)), the “Tlast (last time point with detectable peptide)” value in data set [4] (iv, listed as Cyclic HBD1 (3-11)) was 8 h; in data set [4] (sc, listed as Cyclic HBD1 (3-11)) it was 4 h; in data set [4] (sc, listed as cyclic HBD1 (3-11)), no more than 4 h.

“KHHLGLEEPKKLR [SEQ ID NO: 1, KHHLGLEEPKKLR, reference compound]”: the “quantifiable exposure after administration by either dose route” value in data set [4] is “no quantifiable exposure”. Further, the “stability in human plasma (in words)” value in data set [5] was “markedly degraded in human plasma”.

For the molecule HLGLEEPKK [SEQ ID NO: 10, HLGLEEPKK], the “quantifiable exposure after administration by either dose route” value in data set [4] was “no quantifiable exposure”. The “stability in human plasma (in words)” value in data set [5] is recorded as “very stable in human plasma”.
